In patent US20240209028A1, “CNP COMPOUNDS” (priority 2022, published 2024):
Starred links: 1 amine or outer side, 2 acyl side, 3 side chain; linkers in the order of their positions; H or OH if unused. Positions of bridges follow the written chain, without caps; N, C: chain ends. Non-standard residues stand in square brackets, D forms with d. Residues, ends and D or L forms follow the SMILES beside them. No end group written: not given here. *: point of attachment. C18 diacid = O=C(O)CCCCCCCCCCCCCCCCC(=O)*; γGlu = O=C(O)[C@H](CCC(=O)[*:2])N[*:1]; AEEA = NCCOCCOCC(=O)O

These compounds were tested against T1, human natriuretic peptide receptor 2 (hNPR2) (Homo sapiens, UniProt P20594) (assay: In vitro hNPR2 activity assay (cGMP GloSensor reporter, HEK293)). Details: 0% HSA; HEK293-hNPR2/GloSensor cells.
T1 construct: expressed in transfected cells; host or cells: HEK293 (ATCC CRL-1573), clone 35, co-transfected with pGloSensor-42F
T1 sequence (P20594 23-1047): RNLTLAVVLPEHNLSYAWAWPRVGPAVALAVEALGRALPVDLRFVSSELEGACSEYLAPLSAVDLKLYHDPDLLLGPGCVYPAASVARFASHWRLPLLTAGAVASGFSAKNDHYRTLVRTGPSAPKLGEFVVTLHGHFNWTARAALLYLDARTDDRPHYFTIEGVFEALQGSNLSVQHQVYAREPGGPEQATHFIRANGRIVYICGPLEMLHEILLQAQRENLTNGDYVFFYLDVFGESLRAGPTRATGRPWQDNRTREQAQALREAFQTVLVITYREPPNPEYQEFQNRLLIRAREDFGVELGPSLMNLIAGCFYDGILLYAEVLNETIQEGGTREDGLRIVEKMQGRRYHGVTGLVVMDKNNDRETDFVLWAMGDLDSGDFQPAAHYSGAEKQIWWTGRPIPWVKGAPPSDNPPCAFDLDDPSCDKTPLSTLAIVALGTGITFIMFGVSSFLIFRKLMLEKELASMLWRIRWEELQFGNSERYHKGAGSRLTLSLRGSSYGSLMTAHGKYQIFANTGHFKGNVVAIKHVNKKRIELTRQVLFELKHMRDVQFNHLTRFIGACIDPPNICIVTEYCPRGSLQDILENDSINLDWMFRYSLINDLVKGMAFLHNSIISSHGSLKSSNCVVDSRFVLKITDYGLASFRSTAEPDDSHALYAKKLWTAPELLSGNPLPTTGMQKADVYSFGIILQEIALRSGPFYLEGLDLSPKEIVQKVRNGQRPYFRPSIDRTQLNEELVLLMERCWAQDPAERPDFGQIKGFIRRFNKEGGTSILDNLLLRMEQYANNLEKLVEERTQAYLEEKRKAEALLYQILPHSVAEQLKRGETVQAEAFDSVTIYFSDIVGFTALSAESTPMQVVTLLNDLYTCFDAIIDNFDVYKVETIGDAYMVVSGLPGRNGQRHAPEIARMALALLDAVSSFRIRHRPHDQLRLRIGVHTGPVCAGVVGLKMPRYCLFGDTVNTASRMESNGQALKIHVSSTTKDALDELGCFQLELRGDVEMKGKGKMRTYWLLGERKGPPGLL
Format: cell-based
Outline: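 Potency is the EC50 from a four-parameter logistic fit, also expressed relative to the in-plate CNP22 control (×100), with at least two replicates. Compounds (ten concentrations, […], HSA-free diluent with 1% OVA, 0.01% Tween20) were incubated 30 min at 37 °C on HEK293 cells co-expressing hNPR2 and a GloSensor cGMP luciferase. Luminescence detected with Bright-Glo.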
Work on CC[C@H](C)[C@@H]1NC(=O)[C@H](CCCNC(=N)N)NC(=O)[C@H](CCC(=O)O)NC(=O)[C@H](CC(C)C)NC(=O)[C@@H]2CCCN2C(=O)[C@H](CC(C)C)NC(=O)CNC(=O)[C@H](Cc2ccccc2)NC(=O)[C@@H](NC(=O)CNC(=O)[C@H](CCC(N)=O)NC(=O)[C@H](CO)NC(=O)[C@H](CO)NC(=O)CNC(=O)[C@H](CCCCN)NC(=O)[C@H](CCCCN)NC(=O)[C@H](CCC(N)=O)NC(=O)[C@H](C)NC(=O)CNC(=O)[C@@H]2CCCN2C(=O)[C@H](C)NC(=O)[C@H](CCC(N)=O)NC(=O)CNC(=O)COCCOCCNC(=O)COCCOCCNC(=O)CC[C@H](NC(=O)CCCCCCCCCCCCCCCCC(=O)O)C(=O)O)CSSC[C@@H](C(=O)O)NC(=O)CNC(=O)[C@H](CC(C)C)NC(=O)CNC(=O)[C@H](CO)NC(=O)[C@H](CC(C)C)NC(=O)[C@H](CO)NC(=O)CNC1=O [compound 1486] ({C18 diacid-γGlu-AEEA-AEEA}-GQAPGAQKKGSSQGCFGLPLERIGSLSGLGC-OH; disulfide 15-31; C-terminus assumed) yielded an EC50 of 0.14 nM.

Same assay, conditions: potency relative to CNP22 (0065)
For CC[C@H](C)[C@@H]1NC(=O)[C@H](CCCNC(=N)N)NC(=O)[C@H](CCC(=O)O)NC(=O)[C@H](CC(C)C)NC(=O)[C@@H]2CCCN2C(=O)[C@H](CC(C)C)NC(=O)CNC(=O)[C@H](Cc2ccccc2)NC(=O)[C@@H](NC(=O)CNC(=O)[C@H](CO)NC(=O)[C@H](CO)NC(=O)[C@@H](NC(=O)CNC(=O)[C@H](CCCCN)NC(=O)[C@H](CCCCN)NC(=O)[C@H](CCC(N)=O)NC(=O)[C@H](C)NC(=O)CNC(=O)[C@H](Cc2c[nH]cn2)NC(=O)[C@H](Cc2ccc(O)cc2)NC(=O)[C@H](CCCCN)NC(=O)[C@H](CCCNC(=N)N)NC(=O)[C@H](C)NC(=O)COCCOCCNC(=O)COCCOCCNC(=O)CC[C@H](NC(=O)CC[C@H](NC(=O)CC[C@H](NC(=O)CCCCCCCCCCCCCCCCC(=O)O)C(=O)O)C(=O)O)C(=O)O)C(C)C)CSSC[C@@H](C(=O)O)NC(=O)CNC(=O)[C@H](CC(C)C)NC(=O)CNC(=O)[C@H](CO)NC(=O)[C@H](CC(C)C)NC(=O)[C@H](CO)NC(=O)CNC1=O [compound 1451] ({C18 diacid-γGlu-γGlu-γGlu-AEEA-AEEA}-ARKYHGAQKKGVSSGCFGLPLERIGSLSGLGC-OH; disulfide 16-32), the “hNPR2 0% HSA. [EC50% rel CNP]” value was 47.5%. In the case of CC[C@H](C)[C@@H]1NC(=O)[C@H](CCCNC(=N)N)NC(=O)[C@H](CCC(=O)O)NC(=O)[C@H](CC(C)C)NC(=O)[C@@H]2CCCN2C(=O)[C@H](CC(C)C)NC(=O)CNC(=O)[C@H](Cc2ccccc2)NC(=O)[C@@H](NC(=O)CNC(=O)[C@H](CCC(N)=O)NC(=O)[C@H](CO)NC(=O)[C@H](CO)NC(=O)CNC(=O)[C@H](CCCCN)NC(=O)[C@H](CCCCN)NC(=O)[C@H](CCC(N)=O)NC(=O)[C@H](C)NC(=O)CNC(=O)[C@@H]2CCCN2C(=O)[C@H](C)NC(=O)[C@H](CCC(N)=O)NC(=O)CNC(=O)COCCOCCNC(=O)COCCOCCNC(=O)CC[C@H](NC(=O)CCCCCCCCCCCCCCCCC(=O)O)C(=O)O)CSSC[C@@H](C(=O)O)NC(=O)CNC(=O)[C@H](CC(C)C)NC(=O)CNC(=O)[C@H](CO)NC(=O)[C@H](CC(C)C)NC(=O)[C@H](CO)NC(=O)CNC1=O [compound 1486] ({C18 diacid-γGlu-AEEA-AEEA}-GQAPGAQKKGSSQGCFGLPLERIGSLSGLGC-OH; disulfide 15-31; C-terminus assumed), the “hNPR2 0% HSA. [EC50% rel CNP]” value was 6.0%. In the case of CC[C@H](C)[C@@H]1NC(=O)[C@H](CCCNC(=N)N)NC(=O)[C@H](CC(=O)O)NC(=O)[C@H](CC(C)C)NC(=O)[C@@H]2CCCN2C(=O)[C@H](CC(C)C)NC(=O)CNC(=O)[C@H](Cc2ccccc2)NC(=O)[C@@H](NC(=O)CNC(=O)[C@H](Cc2c[nH]cn2)NC(=O)[C@H](CO)NC(=O)[C@H](CC(C)C)NC(=O)CNC(=O)[C@H](CCCCN)NC(=O)[C@H](CCCCN)NC(=O)[C@H](CCC(N)=O)NC(=O)[C@H](C)NC(=O)CNC(=O)COCCOCCNC(=O)COCCOCCNC(=O)CC[C@H](NC(=O)CCCCCCCCCCCCCCCCC(=O)O)C(=O)O)CSSC[C@@H](C(=O)O)NC(=O)CNC(=O)[C@H](CC(C)C)NC(=O)CNC(=O)[C@H](CO)NC(=O)[C@H](CC(C)C)NC(=O)[C@H](CO)NC(=O)CNC1=O [compound 1347] ({C18 diacid-γGlu-AEEA-AEEA}-GAQKKGLSHGCFGLPLDRIGSLSGLGC-OH; disulfide 11-27; C-terminus assumed), the “hNPR2 0% HSA. [EC50% rel CNP]” value was 15.4%. In the case of CC[C@H](C)[C@@H]1NC(=O)[C@H](CCCNC(=N)N)NC(=O)[C@H](CC(=O)O)NC(=O)[C@H](CC(C)C)NC(=O)[C@@H]2CCCN2C(=O)[C@H](CC(C)C)NC(=O)CNC(=O)[C@H](Cc2ccccc2)NC(=O)[C@@H](NC(=O)CNC(=O)[C@H](CCC(N)=O)NC(=O)[C@H](CO)NC(=O)[C@H](CC(C)C)NC(=O)CNC(=O)[C@H](CCCCN)NC(=O)[C@H](CCCCN)NC(=O)[C@H](CCC(N)=O)NC(=O)[C@H](C)NC(=O)CNC(=O)[C@@H]2CCCN2C(=O)[C@H](C)NC(=O)[C@H](CCC(N)=O)NC(=O)CNC(=O)[C@@H]2CCCN2C(=O)[C@H](C)NC(=O)[C@H](CCC(N)=O)NC(=O)CNC(=O)[C@@H]2CCCN2C(=O)[C@H](C)NC(=O)[C@H](CCC(N)=O)NC(=O)CNC(=O)CC[C@H](NC(=O)CCCCCCCCCCCCCCCCC(=O)O)C(=O)O)CSSC[C@@H](C(=O)O)NC(=O)CNC(=O)[C@H](CC(C)C)NC(=O)CNC(=O)[C@H](CO)NC(=O)[C@H](CC(C)C)NC(=O)[C@H](CO)NC(=O)CNC1=O [compound 1488] ({C18 diacid-γGlu}-GQAPGQAPGQAPGAQKKGLSQGCFGLPLDRIGSLSGLGC-OH; disulfide 23-39), the “hNPR2 0% HSA. [EC50% rel CNP]” value was 29.3%. In the case of “{C18 diacid}-EEEEE[AEEA][AEEA][AEEA][AEEA]ARKYKGAQKKGLSQGCFGLPLDRIGSLSGLGC (disulfide 25-41) [compound 1475]”, the “hNPR2 0% HSA. [EC50% rel CNP]” value was 46.5%. In the case of CC[C@H](C)[C@@H]1NC(=O)[C@H](CCCNC(=N)N)NC(=O)[C@H](CC(=O)O)NC(=O)[C@H](CC(C)C)NC(=O)[C@@H]2CCCN2C(=O)[C@H](CC(C)C)NC(=O)CNC(=O)[C@H](Cc2ccccc2)NC(=O)[C@@H](NC(=O)CNC(=O)[C@H](CCC(N)=O)NC(=O)[C@H](CO)NC(=O)[C@@H](NC(=O)CNC(=O)[C@H](CCCCN)NC(=O)[C@H](CCCCN)NC(=O)[C@H](CCC(N)=O)NC(=O)[C@H](C)NC(=O)CNC(=O)[C@H](CCCCN)NC(=O)[C@H](Cc2ccc(O)cc2)NC(=O)COCCOCCNC(=O)COCCOCCNC(=O)COCCOCCNC(=O)COCCOCCNC(=O)CC[C@H](NC(=O)CC[C@H](NC(=O)CCCCCCCCCCCCCCCCC(=O)O)C(=O)O)C(=O)O)C(C)C)CSSC[C@@H](C(=O)O)NC(=O)CNC(=O)[C@H](CC(C)C)NC(=O)CNC(=O)[C@H](CO)NC(=O)[C@H](CC(C)C)NC(=O)[C@H](CO)NC(=O)CNC1=O [compound 1436] ({C18 diacid-γGlu-γGlu-AEEA-AEEA-AEEA-AEEA}-YKGAQKKGVSQGCFGLPLDRIGSLSGLGC-OH; disulfide 13-29; C-terminus assumed), the “hNPR2 0% HSA. [EC50% rel CNP]” value was 30.2%. In the case of CC[C@H](C)[C@@H]1NC(=O)[C@H](CCCNC(=N)N)NC(=O)[C@H](CC(=O)O)NC(=O)[C@H](CC(C)C)NC(=O)[C@@H]2CCCN2C(=O)[C@H](CC(C)C)NC(=O)CNC(=O)[C@H](Cc2ccccc2)NC(=O)[C@@H](NC(=O)CNC(=O)[C@H](CCCCN)NC(=O)[C@H](CO)NC(=O)CNC(=O)CNC(=O)[C@H](CCCCN)NC(=O)[C@H](CCCCN)NC(=O)[C@H](CCC(N)=O)NC(=O)[C@H](C)NC(=O)CNC(=O)[C@H](CCC(=O)O)NC(=O)[C@H](Cc2ccc(O)cc2)NC(=O)COCCOCCNC(=O)COCCOCCNC(=O)COCCOCCNC(=O)COCCOCCNC(=O)CC[C@H](NC(=O)CCCCCCCCCCCCCCCCC(=O)O)C(=O)O)CSSC[C@@H](C(=O)O)NC(=O)CNC(=O)[C@H](CC(C)C)NC(=O)CNC(=O)[C@H](CO)NC(=O)[C@H](CC(C)C)NC(=O)[C@H](CO)NC(=O)CNC1=O [compound 1391] ({C18 diacid-γGlu-AEEA-AEEA-AEEA-AEEA}-YEGAQKKGGSKGCFGLPLDRIGSLSGLGC-OH; disulfide 13-29), the “hNPR2 0% HSA. [EC50% rel CNP]” value was 37.9%. With CC[C@H](C)[C@@H]1NC(=O)[C@H](CCCNC(=N)N)NC(=O)[C@H](CC(=O)O)NC(=O)[C@H](CC(C)C)NC(=O)[C@@H]2CCCN2C(=O)[C@H](CC(C)C)NC(=O)CNC(=O)[C@H](Cc2ccccc2)NC(=O)[C@@H](NC(=O)CNC(=O)[C@H](CO)NC(=O)[C@H](CO)NC(=O)[C@H](CC(C)C)NC(=O)CNC(=O)[C@H](CCCCN)NC(=O)[C@H](CCCCN)NC(=O)[C@H](CCC(N)=O)NC(=O)[C@H](C)NC(=O)CNC(=O)[C@H](CCC(=O)O)NC(=O)[C@H](Cc2ccc(O)cc2)NC(=O)[C@H](CO)NC(=O)[C@H](CCCNC(=N)N)NC(=O)[C@H](C)NC(=O)[C@H](CCC(=O)O)NC(=O)[C@@H]2CCCN2C(=O)[C@H](Cc2c[nH]cn2)NC(=O)[C@H](CCC(=O)O)NC(=O)[C@H](CCC(N)=O)NC(=O)COCCOCCNC(=O)COCCOCCNC(=O)CC[C@H](NC(=O)CCCCCCCCCCCCCCCCC(=O)O)C(=O)O)CSSC[C@@H](C(=O)O)NC(=O)CNC(=O)[C@H](CC(C)C)NC(=O)CNC(=O)[C@H](CO)NC(=O)[C@H](CC(C)C)NC(=O)[C@H](CO)NC(=O)CNC1=O [compound 1380] ({C18 diacid-γGlu-AEEA-AEEA}-QEHPEARSYEGAQKKGLSSGCFGLPLDRIGSLSGLGC-OH; disulfide 21-37; C-terminus assumed) the “hNPR2 0% HSA. [EC50% rel CNP]” value was 15.7%.
